Measured values published in US20230226066A1, “COMPOUNDS FOR THE TREATMENT OF VIRAL INFECTIONS” (MERCK PATENT GMBH, priority 2020, published 2023).

Legend:
Format in all cases: cell-based
SARS-CoV2/ZG/297-20 = settings: MOI 0.05; 120 hours observation; Compound 1 at 1-81 μM, Compound 2 at 9-81 μM; compared to uninfected and infected control cells; FIGS. 1 and 2
[1] = tested on: Dengue virus serotype 2 (DENV-2); assay: Antiviral testing against Dengue virus serotype 2 in Vero cells (CPE inhibition assay, immunostaining); settings: DENV2, Vero, read-out: half maximal effective concentration (EC50), viral replication
Experimental: (§1) The antiviral effect of Compounds is evaluated against Dengue virus serotype 2 (DENV-2) using cytopathic effect (CPE) inhibition assay. Cytotoxic effect was assessed in parallel.
(§2) Five-fold serial dilutions of Compound 2 were prepared at a starting concentration of 50 μM and added in triplicate to 1.00E+04 Vero cells seeded in conical 96-well plates one day prior and incubated at 37° C. and 5% CO2 for one-hour. During the incubation time, viruses were thawed and inoculum prepared in infection medium. Stock and inoculum were maintained in wet ice at all time. Virus was then added to the Compound 2 dilutions/cells (1:1) and plates were incubated at 37° C. and 5% CO2 for 3-5 days.
Cells were immunostained. Then, medium was removed, cells were washed with PBS, fixed with cold 80%/20% (v/v) ethanol/methanol and incubated at −20° C. for 20 minutes. After removal of fixative the plates were air-dried, washed and stained with specific Ab #1, washed and stained with Ab #2-HRP conjugated. Then, cells were washed, 3,3′,5,5′-tetramethylbenzidine (TMB) substrate was added followed by addition of stop solution. The supernatant was transferred to a clean plate and signal read at 450 nm.

[2] = Cytotoxic effect on Vero cells, assessed in parallel; settings: African green monkey, FIG. 5, read-out: half maximal cytotoxic concentration (CC50), viability of Vero cells
Experimental: as §1, §2

Compound | confluence of Calu-3 cells infected with SARS-CoV-2 (SARS-CoV2/ZG/297-20) | EC50 [1] [µM] | CC50 [2] [µM]
Nc1nn2cc(F)cnc2c1C(=O)Nc1cncc(F)c1N1CCC(C(=O)N2CCN(C3COC3)CC2)CC1 [Compound 1, 2-Amino-6-fluoro-pyrazolo[1,5-a]pyrimidine-3-carboxylic acid [5′-fluoro-4-(4-oxetan-3-yl-piperazine-1-carbonyl)-3,4,5,6-tetrahydro-2H-[1,4′]bipyridinyl-3′-yl]-amide] | significant improvement of the confluence of the cells |  | 
Cn1cncc1-c1c(F)cncc1NC(=O)c1c(N)nn2cc(F)cnc12 [Compound 2, 2-Amino-6-fluoro-N-[5-fluoro-4-(1-methyl-1H-imidazol-5-yl)pyridin-3-yl]pyrazolo [1,5-a]pyrimidine-3-carboxamide] | significant improvement of the confluence of the cells | 0.46 | 6.8
